This passage reports IC50 results from patent US4895842A, “Phenylalanine derivative and proteinase inhibitor” (Shosuke Okamoto, priority 1985, dated 1990).

Molecules are shown by their SMILES. pIC50: −log10 of the molar value. Bounds are passed on as bounds.

The target in one assay is human urokinase (Homo sapiens, UniProt P00749). The assay is described as follows: biochemical. The following applies: Table 2; S-2444 substrate, pH 8.8, 37° C.; read-out: Urokinase S-2444 (I50). The gist of the method: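 Inhibitor in 0.05M Tris-HCl pH 8.8 preincubated 5 min at 37° C with S-2444 (1 mM solution added), then human urokinase (500 unit/ml solution) added for 5 min at 37° C; stopped with 50% acetic acid. p-Nitroaniline read at 405 nm; I50 is concentration halving absorbance versus no inhibitor.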

In assay [1] the target is T1, bovine thrombin (Bos taurus, UniProt P00735). As to the kind of experiment: Antithrombin activity: inhibition of S-2238 decomposition. The class given is biochemical. The gist of the method:
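Inhibitor in 0.05 M Tris-HCl, pH 8.3, preincubated with S-2238 (0.2 mM stock) for 5 min at 37 °C. Bovine thrombin (0.2 unit/ml stock) then added, and p-nitroaniline release followed at 405 nm by initial velocity at 37 °C. I50 is the concentration halving the rate.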

Assay [2] addresses T2, human plasmin (Homo sapiens, UniProt P00747). The assay is described as follows: biochemical. The following applies: read-out: Plasmin S-2251 (I50). In outline:
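Inhibitor in 0.05M Tris-HCl buffer, pH 7.4, was incubated with human plasmin added at 0.2 casein unit/ml (stock) at 37° C for 4 minutes, then stopped with 50% acetic acid. I50 (μmol) is the inhibitor concentration giving half the absorbance obtained without inhibitor.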

In the next assay the target is human plasma kallikrein (Homo sapiens, UniProt P03952). As to the kind of experiment: Anti-plasma kallikrein activity: inhibition of S-2302 decomposition. The class given is biochemical. The following applies: Table 2; S-2302 substrate, pH 7.8, 37° C.; read-out: Plasma Kallikrein S-2302 (I50).
The target in another assay is T3, bovine trypsin (Bos taurus, UniProt P00760).
T3 sequence (P00760 24-246): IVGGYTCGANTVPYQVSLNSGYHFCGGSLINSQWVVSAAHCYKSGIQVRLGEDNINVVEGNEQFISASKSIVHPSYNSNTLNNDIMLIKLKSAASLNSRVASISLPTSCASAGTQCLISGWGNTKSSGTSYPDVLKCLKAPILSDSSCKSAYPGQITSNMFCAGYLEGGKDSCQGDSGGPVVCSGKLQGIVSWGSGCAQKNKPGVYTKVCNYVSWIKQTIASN
The assay is described as follows: Antitrypsin activity: inhibition of S-2238 decomposition. The class given is biochemical. The following applies: Table 2; S-2238 substrate, pH 8.1, 37° C.; read-out: Trypsin S-2238 (I50).

Assay [3] concerns the target T1, bovine thrombin. As to the kind of experiment: Antithrombin activity: inhibition of fibrin formation from fibrinogen. The class given is biochemical. In outline: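 Inhibitor in 0.18M borate-saline buffer pH 7.4 mixed with 0.2% bovine fibrinogen and 4 unit/ml bovine thrombin (stock levels) at 37° C; clotting time measured. I50 is the inhibitor concentration doubling coagulation time versus uninhibited control.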

Assay [4] concerns the target T2, human plasmin. The assay is described as follows: Antiplasmin activity: inhibition of fibrin decomposition. The class given is biochemical. The following applies: Table 2; concentration at which fibrin dissolution time is extended twice, pH 7.4, 37° C.; read-out: Plasmin Fibrin (I50). The gist of the method: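 Inhibitor in 0.18 M borate–physiological saline buffer, pH 7.4, received bovine fibrinogen (0.2% solution), human plasmin (0.3 casein unit/ml solution) and bovine thrombin (50 unit/ml solution) at 37 °C. Time for the resulting fibrin clot to dissolve was recorded.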

[5] abbreviates: Table 2, S-2238 substrate, pH 8.3, 37° C., read-out: Thrombin S-2238 (I50).
The mark [6] stands for this setting: Table 2, 50% inhibition concentration, S-2251 substrate, pH 7.4, 37° C.
[7] abbreviates: read-out: Thrombin Fibrinogen (I50), Table 2, concentration at which coagulation time of bovine fibrinogen is extended twice, pH 7.4, 37° C.

T2 sequence (P00747 581-810 limits assumed): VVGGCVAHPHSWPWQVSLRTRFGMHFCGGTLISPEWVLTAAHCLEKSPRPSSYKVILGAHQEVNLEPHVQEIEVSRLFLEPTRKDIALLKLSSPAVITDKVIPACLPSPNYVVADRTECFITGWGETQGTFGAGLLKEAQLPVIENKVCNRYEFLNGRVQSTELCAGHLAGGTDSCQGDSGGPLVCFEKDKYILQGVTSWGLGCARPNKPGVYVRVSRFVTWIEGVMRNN
T2 sequence (P00747 97-580 partner limits assumed): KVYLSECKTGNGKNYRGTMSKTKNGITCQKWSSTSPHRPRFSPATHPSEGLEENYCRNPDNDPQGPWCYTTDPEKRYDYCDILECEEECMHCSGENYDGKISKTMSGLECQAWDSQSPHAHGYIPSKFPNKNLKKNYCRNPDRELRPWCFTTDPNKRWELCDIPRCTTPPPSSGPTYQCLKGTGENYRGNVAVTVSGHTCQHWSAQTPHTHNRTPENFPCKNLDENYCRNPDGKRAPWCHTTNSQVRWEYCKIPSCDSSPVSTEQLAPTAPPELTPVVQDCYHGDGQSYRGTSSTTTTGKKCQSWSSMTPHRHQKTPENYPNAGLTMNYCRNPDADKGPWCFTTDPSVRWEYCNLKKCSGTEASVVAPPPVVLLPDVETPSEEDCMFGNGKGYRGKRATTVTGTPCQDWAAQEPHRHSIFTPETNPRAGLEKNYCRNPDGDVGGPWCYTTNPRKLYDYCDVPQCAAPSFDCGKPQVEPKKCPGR
Sequence of human plasma kallikrein (P03952 391-638 limits assumed): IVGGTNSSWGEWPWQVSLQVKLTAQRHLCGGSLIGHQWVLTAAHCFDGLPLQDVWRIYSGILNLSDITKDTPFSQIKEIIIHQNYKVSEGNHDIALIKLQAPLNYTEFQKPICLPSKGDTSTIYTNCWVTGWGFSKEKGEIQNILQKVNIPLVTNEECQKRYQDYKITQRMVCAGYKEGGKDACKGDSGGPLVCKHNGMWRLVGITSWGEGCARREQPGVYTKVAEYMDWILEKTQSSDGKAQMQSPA
Sequence of human plasma kallikrein (P03952 20-390 partner limits assumed): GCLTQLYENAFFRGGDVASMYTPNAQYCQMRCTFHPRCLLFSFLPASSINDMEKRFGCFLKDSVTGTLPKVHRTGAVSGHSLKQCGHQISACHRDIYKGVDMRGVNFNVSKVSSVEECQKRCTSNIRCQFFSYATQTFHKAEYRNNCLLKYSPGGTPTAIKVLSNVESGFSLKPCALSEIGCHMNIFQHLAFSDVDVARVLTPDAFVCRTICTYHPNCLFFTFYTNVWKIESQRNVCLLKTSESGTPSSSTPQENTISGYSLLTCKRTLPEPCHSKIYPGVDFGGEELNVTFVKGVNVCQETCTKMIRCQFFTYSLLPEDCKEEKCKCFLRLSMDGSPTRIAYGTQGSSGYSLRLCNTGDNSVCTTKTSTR

Turning to `NC[C@H]1CC[C@H](C(=O)NC(Cc2ccc(N)cc2)C(=O)Nc2ccc(C(=O)c3ccccc3)cc2)CC1` (stereo partly drawn) [compound 33], the pIC50 on human urokinase is 4.96; at bovine thrombin [1] (setting [5]), less than 3.70; on human plasmin [2] it was 4.89; at human plasma kallikrein it was 5.07; at bovine trypsin it was 6.28; against bovine thrombin [3], less than 3.70. Moreover, the pIC50 at human plasmin [4] was 4.92.

Regarding `NC[C@H]1CC[C@H](C(=O)N[C@@H](Cc2ccc(OCc3ccccc3)cc2)C(=O)Nc2cccc(Cl)c2)CC1` [compound 36], the pIC50 on human urokinase is 4.00; against bovine thrombin [1], less than 3.90; on human plasmin [2], 5.77; on human plasma kallikrein it was 5.92; on bovine trypsin, 6.09; against bovine thrombin [3] it was less than 4.30. The pIC50 at human plasmin [4] is 6.39.

Consider `CC1CCC(NC(=O)[C@H](Cc2ccc(OCc3ccccc3)cc2)NC(=O)c2ccc(CN)cc2)CC1` (stereo partly drawn) [compound 38], for which the pIC50 on human urokinase is less than 3.40; on bovine thrombin [1] (setting [5]) it was less than 4.30; on human plasmin [2], 5.64; on human plasma kallikrein, 4.22; on bovine trypsin, 5.60; against bovine thrombin [3], less than 4.30. For the same molecule, the pIC50 on human plasmin [4] was 6.39.

Turning to `NC[C@H]1CC[C@H](C(=O)N[C@@H](Cc2ccc(OCc3ccccc3)cc2)C(=O)Nc2cccc([N+](=O)[O-])c2)CC1` [compound 44], the pIC50 was 4.22 on human urokinase; less than 3.30 on bovine thrombin [1] (setting [5]); 5.42 at human plasmin [2]; 5.92 at human plasma kallikrein; 5.96 at bovine trypsin; less than 4.00 against bovine thrombin [3]. The pIC50 on human plasmin [4] was 6.02.

In the case of `NC[C@H]1CC[C@H](C(=O)N[C@@H](Cc2ccc(OCc3ccccc3)cc2)C(=O)N2CCC(C(=O)c3ccccc3)CC2)CC1` [compound 48], the pIC50 on human urokinase is less than 3.70; on bovine thrombin [1], less than 3.70; at human plasmin [2], 5.28; on human plasma kallikrein, less than 4.00; at bovine trypsin it was 4.66; against bovine thrombin [3] it was less than 4.00. The pIC50 on human plasmin [4] was 5.47.

As for `CC(=O)c1ccc(NC(=O)[C@H](Cc2ccc(OCc3cccc([N+](=O)[O-])c3)cc2)NC(=O)[C@H]2CC[C@H](CN)CC2)cc1` [compound 54], the pIC50 is 4.46 at human urokinase; less than 3.70 at bovine thrombin [1] (setting [5]); 6.00 on human plasmin [2]; 6.35 at human plasma kallikrein; 6.00 at bovine trypsin; less than 4.00 on bovine thrombin [3]. Further, at human plasmin [4], the pIC50 was 6.72.

As for `CC(=O)c1ccc(NC(=O)[C@H](Cc2ccc(OCc3cccc(C(F)(F)F)c3)cc2)NC(=O)[C@H]2CC[C@H](CN)CC2)cc1` [compound 55], the pIC50 on human urokinase is 4.24; on bovine thrombin [1] (setting [5]), less than 3.90; at human plasmin [2] it was 5.92; on human plasma kallikrein it was 6.38; at bovine trypsin, 5.59; at bovine thrombin [3] it was less than 4.30. For the same molecule, on human plasmin [4], the pIC50 is 6.54.

As for `CC(=O)c1ccc(NC(=O)[C@H](Cc2ccc(OCc3cccc(F)c3)cc2)NC(=O)[C@H]2CC[C@H](CN)CC2)cc1` [compound 56], the pIC50 on human urokinase is 4.34; on bovine thrombin [1] (setting [5]), 3.30; on human plasmin [2], 5.72; at human plasma kallikrein, 6.12; on bovine trypsin, 5.92; against bovine thrombin [3] it was less than 4.00. Moreover, the pIC50 on human plasmin [4] was 6.54.

As for `C=CCOc1ccc(C[C@H](NC(=O)[C@H]2CC[C@H](CN)CC2)C(=O)Nc2ccc(C(C)=O)cc2)cc1` [compound 57], the pIC50 on human urokinase was 4.35; at bovine thrombin [1] (setting [5]) it was 3.14; on human plasmin [2], 5.34; at human plasma kallikrein, 5.85; on bovine trypsin, 6.14; on bovine thrombin [3], less than 3.30. Also, on human plasmin [4], the pIC50 was 5.48.

Take `Cc1ccc(NC(=O)[C@H](Cc2ccc(OCc3ccccc3)cc2)NC(=O)[C@H]2CC[C@H](CN)CC2)cc1C` [compound 58]: the pIC50 is less than 3.82 on human urokinase; less than 3.90 on bovine thrombin [1] (setting [5]); 5.47 on human plasmin [2]; 5.55 on human plasma kallikrein; 5.89 on bovine trypsin; less than 4.30 on bovine thrombin [3]. Moreover, the pIC50 at human plasmin [4] was 6.14.

On to `NCc1ccc(C(=O)N[C@@H](Cc2ccc(OCc3ccccc3)cc2)C(=O)NC2CC3CCC2C3)cc1` (stereo partly drawn) [compound 62], for which the pIC50 at human urokinase is less than 3.30; at bovine thrombin [1] (setting [5]), less than 3.70; at human plasmin [2], 5.74; at human plasma kallikrein, 5.08; on bovine trypsin it was 5.62; on bovine thrombin [3] it was less than 4.00. The pIC50 on human plasmin [4] is 6.24.

As to `NC[C@H]1CC[C@H](C(=O)N[C@@H](Cc2ccc(OCc3ccccc3)cc2)C(=O)NC2CC3CCC2C3)CC1` (stereo partly drawn) [compound 64], the pIC50 on human urokinase is 4.19; against bovine thrombin [1], less than 3.40; on human plasmin [2] it was 5.60; on human plasma kallikrein it was 5.64; at bovine trypsin, 5.96; against bovine thrombin [3], less than 3.60. Further, the pIC50 on human plasmin [4] is 6.31.

Turning to `NC[C@H]1CC[C@H](C(=O)N[C@@H](Cc2ccc(OCc3cccc(Cl)c3)cc2)C(=O)Nc2cccc(Cl)c2)CC1` [compound 66], the pIC50 is 3.46 on human urokinase; less than 4.30 on bovine thrombin [1] (setting [5]); 6.10 on human plasmin [2]; 6.27 at human plasma kallikrein; 5.41 at bovine trypsin; less than 4.30 on bovine thrombin [3]. Further, the pIC50 on human plasmin [4] was 7.04.

As for `CC(=O)c1ccc(NC(=O)[C@H](Cc2ccc(OCc3ccncc3)cc2)NC(=O)[C@H]2CC[C@H](CN)CC2)cc1` [compound 68], the pIC50 on human urokinase was 4.60; on bovine thrombin [1] (setting [5]), less than 3.40; on human plasmin [2], 5.92; at human plasma kallikrein it was 5.92; on bovine trypsin, 6.00; at bovine thrombin [3], less than 3.30. The pIC50 at human plasmin [4] is 6.19.

As to `CCOC(=O)C1CCCC(NC(=O)[C@H](Cc2ccc(OCc3cccc(Cl)c3)cc2)NC(=O)[C@H]2CC[C@H](CN)CC2)C1` (stereo partly drawn) [compound 70], the pIC50 was 4.09 at human urokinase; 3.77 at bovine thrombin [1] (setting [5]); 5.77 on human plasmin [2] (setting [6]); 5.21 at human plasma kallikrein; 5.89 at bovine trypsin; less than 4.30 on bovine thrombin [3] (setting [7]). The pIC50 on human plasmin [4] is 6.20.

`CCOC(=O)C1CCCC(NC(=O)[C@H](Cc2ccc(OCc3cccc(Cl)c3)cc2)NC(=O)c2ccc(CN)cc2)C1` (stereo partly drawn) [compound 72]: the pIC50 on human urokinase was less than 3.70; on bovine thrombin [1] (setting [5]) it was less than 4.30; at human plasmin [2] (setting [6]), 5.68; on human plasma kallikrein it was 4.60; on bovine trypsin it was 6.02; on bovine thrombin [3] (setting [7]) it was less than 4.60. Also, the pIC50 at human plasmin [4] is 6.21.

For `NCc1ccc(C(=O)N[C@@H](Cc2ccc(OCc3ccccc3)cc2)C(=O)N2CCN(C(=O)c3ccccc3)CC2)cc1` [compound 73], the pIC50 at human urokinase was less than 3.70; on bovine thrombin [1] (setting [5]) it was less than 3.40; at human plasmin [2], 3.66; on human plasma kallikrein it was less than 3.70; at bovine trypsin, 3.35; on bovine thrombin [3], less than 3.40. For the same molecule, the pIC50 on human plasmin [4] is 3.68.

Take `CCOC(=O)c1cccc(NC(=O)[C@H](Cc2ccc(OCc3ccccc3)cc2)NC(=O)[C@H]2CC[C@H](CN)CC2)c1` [compound 75]: the pIC50 on human urokinase is 4.19; on bovine thrombin [1] (setting [5]), less than 3.90; on human plasmin [2], 5.25; on human plasma kallikrein, 5.62; on bovine trypsin, 5.96; against bovine thrombin [3], less than 4.00. In addition, the pIC50 at human plasmin [4] was 6.06.
